The values below come from patent publication US20040242591A1, “Oxazolidinone derivatives as pontential antimicrobials” (priority 2001, published 2004).

For one experiment, the system named is MRSA 33. In words: MIC by agar incorporation method, MRSA 33. The class given is cell-based, Methicillin Resistant Staphylococcus aureus. Set-up: unit not given here. The settings on record: Mueller Hinton agar, 10^4 CFU/spot, 24 hours.
The next experiment relates to S.aureus ATCC 25923. In words: MIC by agar incorporation method, S.aureus 25923. It counts as cell-based, Staphylococus aureus. Set-up: unit not given here. Particulars: Mueller Hinton agar, 10^4 CFU/spot, 18 hours.
The next experiment has as its system Strep. pne. ATCC 6303. The experiment in a line: MIC by agar incorporation method, S. pneum 6303. The class given is cell-based, Streptococcus pneumoniae. The settings on record: Mueller Hinton agar, 10^4 CFU/spot, 18 hours. From the text:
5) Strep. pne. ATCC 6303—Streptococcus pneumoniae ATCC 6303

The next experiment concerns Strep.pyog. ATCC 19615. The experiment in a line: MIC by agar incorporation method, S.pyogenes 19615. It counts as cell-based, Streptococcus pyogenes. Set-up: unit not given here. Particulars: Mueller Hinton agar, 10^4 CFU/spot, 18 hours. An excerpt:
6) Strep.pyog. ATCC 19615—Streptococcus pyogenes

The next experiment deals with MRSA 562. In words: MIC by agar incorporation method, MRSA 562. It counts as cell-based, Methicillin Resistant Staphylococcus aureus. Set-up: unit not given here. Particulars: Mueller Hinton agar, 10^4 CFU/spot, 24 hours.
A further experiment relates to Ent. faecalis ATCC 29212. In words: MIC by agar incorporation method, E.faecalis 29212. The class given is cell-based, Enterococcus faecalis. Also on record: unit not given here. The settings on record: Mueller Hinton agar, 10^4 CFU/spot, 18 hours. An excerpt:
3) Ent. faecalis ATCC 29212—Enterococcus faecalis ATCC 29212

The next experiment deals with S. pneum AB 34. The experiment in a line: MIC by agar incorporation method, S. pneum AB 34. The class given is cell-based, Streptococcus pneumoniae. Also on record: unit not given here. Particulars: Mueller Hinton agar, 10^4 CFU/spot, 18 hours.
Another experiment concerns VRE 6A. The experiment in a line: MIC by agar incorporation method, VRE 6A. Particulars: Mueller Hinton agar, 10^4 CFU/spot, 18 hours. The class given is cell-based, Enterococcus faecium. Set-up: unit not given here. An excerpt:
4) Ent. faecium […]—Enterococcus faecium 6A Van®, Cipro®

The subject of the next experiment is MRSA 15187. In words: MIC by agar incorporation method, MRSA 15187. It counts as cell-based, Methicillin Resistant Staphylococcus aureus. Also on record: unit not given here. Particulars: Mueller Hinton agar, 10^4 CFU/spot, 24 hours. From the text: 2) MRSA 15187—Methicillin Resistant Staphylococcus aureus

Consider `CC(=O)NC[C@H]1CN(c2ccc(N3C(C)CN(C(=O)c4ccco4)CC3C)c(F)c2)C(=O)O1` (stereo partly drawn) [Compound No. 61, (S)-N-[[3-[3-Fluoro-4-[N-1-[2,6-dimethyl-4-{2-furoyl-}]-piperazinyl]phenyl]-2-oxo-5-oxazolidinyl]methyl]acetamide], for which the “In Vitro (MIC) MRSA 33” value with MRSA 33 is recorded as 4. In addition, the “In Vitro (MIC) S.aureus 25923” value with S.aureus ATCC 25923 is reported as 4. For the same compound, in the experiment on Strep. pne. ATCC 6303, the “In Vitro (MIC) S. pneum 6303” value came out at 2 µg/mL. Besides, in the experiment on Strep.pyog. ATCC 19615, the “In Vitro (MIC) S.pyogenes 19615” value was 2. In the experiment with MRSA 562, the “In Vitro (MIC) MRSA 562” value turned out to be 4. For the same compound, the “In Vitro (MIC) E.faecalis 29212” value in the experiment on Ent. faecalis ATCC 29212 stood at 4. For the same compound, the “In Vitro (MIC) S. pneum AB 34” value with S. pneum AB 34 was found to be 2. For the same compound, in the experiment on VRE 6A, the “In Vitro (MIC) VRE 6A” value is recorded as 4. In the experiment on MRSA 15187, the “In Vitro (MIC) MRSA 15187” value is 4.

As for `CC(=O)NC[C@H]1CN(c2ccc(N3C(C)CN(Cc4ccc([N+](=O)[O-])o4)CC3C)c(F)c2)C(=O)O1` (stereo partly drawn) [Compound No. 63, (S)-N-[[3-[3-Fluoro-4-[N-1-[2,6-dimethyl-4-{2-furyl-(5-nitro)methyl-}]-piperazinyl]phenyl]-2-oxo-5-oxazolidinyl]methyl]acetamide], the “In Vitro (MIC) MRSA 33” value in the experiment on MRSA 33 is listed as 8. Moreover, in the experiment with S.aureus ATCC 25923, the “In Vitro (MIC) S.aureus 25923” value was determined as 16. The “In Vitro (MIC) S. pneum 6303” value with Strep. pne. ATCC 6303 came to 16 µg/mL. Moreover, in the experiment with Strep.pyog. ATCC 19615, the “In Vitro (MIC) S.pyogenes 19615” value was 16. Besides, in the experiment with MRSA 562, the “In Vitro (MIC) MRSA 562” value was found to be 8. The “In Vitro (MIC) E.faecalis 29212” value in the experiment on Ent. faecalis ATCC 29212 is 8. Besides, in the experiment on S. pneum AB 34, the “In Vitro (MIC) S. pneum AB 34” value turned out to be 16. For the same compound, in the experiment on VRE 6A, the “In Vitro (MIC) VRE 6A” value was found to be 8. In addition, the “In Vitro (MIC) MRSA 15187” value in the experiment with MRSA 15187 was determined as 8.

As to `CC(=O)NC[C@H]1CN(c2ccc(N3C(C)CN(C(=O)Cc4cccs4)CC3C)c(F)c2)C(=O)O1` (stereo partly drawn) [Compound No. 66, (S)-N-[[3-[3-Fluoro-4-[N-1-[2,6-dimethyl-4-(2-thienylacetyl)]-piperazinyl]phenyl]-2-oxo-5-oxazolidinyl]methyl]acetamide], the “In Vitro (MIC) MRSA 33” value with MRSA 33 is recorded as 8. In addition, the “In Vitro (MIC) S.aureus 25923” value in the experiment on S.aureus ATCC 25923 is 8. Moreover, in the experiment on Strep. pne. ATCC 6303, the “In Vitro (MIC) S. pneum 6303” value is 16 µg/mL. The “In Vitro (MIC) S.pyogenes 19615” value in the experiment with Strep.pyog. ATCC 19615 stood at 16. For the same compound, in the experiment on MRSA 562, the “In Vitro (MIC) MRSA 562” value came out at 8. Further, the “In Vitro (MIC) E.faecalis 29212” value in the experiment with Ent. faecalis ATCC 29212 was found to be 8. In addition, the “In Vitro (MIC) S. pneum AB 34” value in the experiment with S. pneum AB 34 turned out to be 16. Besides, the “In Vitro (MIC) VRE 6A” value in the experiment on VRE 6A amounted to 8. The “In Vitro (MIC) MRSA 15187” value in the experiment on MRSA 15187 amounted to 8.

For the compound `CC(=O)NC[C@H]1CN(c2ccc(N3CCN(C(=O)Cc4cccs4)C(C)C3)c(F)c2)C(=O)O1` (stereo partly drawn) [Compound No. 68, (S)-N-[[3-[3-Fluoro-4-[N-1-[3-methyl-4-{2-thienylacetyl-}]-piperazinyl]phenyl]-2-oxo-5-oxazolidinyl]methyl]acetamide], the “In Vitro (MIC) MRSA 33” value in the experiment on MRSA 33 is listed as 4. Besides, the “In Vitro (MIC) S.aureus 25923” value in the experiment on S.aureus ATCC 25923 is reported as 4. The “In Vitro (MIC) S. pneum 6303” value in the experiment on Strep. pne. ATCC 6303 amounted to 4 µg/mL. The “In Vitro (MIC) S.pyogenes 19615” value in the experiment with Strep.pyog. ATCC 19615 amounted to 2. The “In Vitro (MIC) MRSA 562” value in the experiment with MRSA 562 was determined as 4. Further, the “In Vitro (MIC) E.faecalis 29212” value with Ent. faecalis ATCC 29212 stood at 4. In addition, the “In Vitro (MIC) S. pneum AB 34” value in the experiment with S. pneum AB 34 is given as 4. The “In Vitro (MIC) VRE 6A” value in the experiment on VRE 6A was found to be 4. In addition, the “In Vitro (MIC) MRSA 15187” value in the experiment with MRSA 15187 came to 4.

`CC(=O)NC[C@H]1CN(c2ccc(N3CCN(C(=O)c4ccc([N+](=O)[O-])o4)C(C)C3)c(F)c2)C(=O)O1` (stereo partly drawn) [Compound No. 69, (S)-N-[[3-[3-Fluoro-4-[N-1-[3-methyl-4-{2-furoyl-(5-nitro)}]-piperazinyl]phenyl]-2-oxo-5-oxazolidinyl]methyl]acetamide]: in the experiment with MRSA 33, the “In Vitro (MIC) MRSA 33” value was determined as 1. Also, in the experiment on S.aureus ATCC 25923, the “In Vitro (MIC) S.aureus 25923” value was 1. The “In Vitro (MIC) S. pneum 6303” value in the experiment on Strep. pne. ATCC 6303 was 8 µg/mL. In the experiment on Strep.pyog. ATCC 19615, the “In Vitro (MIC) S.pyogenes 19615” value turned out to be 2. Further, the “In Vitro (MIC) MRSA 562” value with MRSA 562 amounted to 0.5. In addition, the “In Vitro (MIC) E.faecalis 29212” value in the experiment with Ent. faecalis ATCC 29212 is 0.5. The “In Vitro (MIC) S. pneum AB 34” value in the experiment on S. pneum AB 34 amounted to 8. The “In Vitro (MIC) VRE 6A” value in the experiment on VRE 6A turned out to be 0.5. For the same compound, the “In Vitro (MIC) MRSA 15187” value in the experiment on MRSA 15187 was 1.
